According to patent publication US9822058B2 (CHDI FOUNDATION, INC., priority 2012, dated 2017):

Molecular target: T1, KMO mouse enzyme (Mus musculus, UniProt Q91WN4)
T1 construct: KMO enzyme prepared at Evotec from mouse liver (4-6 weeks old) via mitochondria isolation; from tissue; host or cells: mouse liver (4-6 weeks old), isolated mitochondria, prepared at Evotec
Test: KMO mouse enzyme assay: L-Kynurenine hydroxylation to 3-Hydroxy-Kynurenine by LC/MS (protocols substantially similar to Example 33)
Format: biochemical
Conditions: compound at 30 µM; KMO enzyme from mouse liver mitochondria; 100 μM L-Kynurenine; 40 min at RT
Protocol: A method of monitoring L-Kynurenine (KYN) hydroxylation to form 3-Hydroxy-Kynurenine (3OH-KYN) by LC/MS is described. Product is quantified by multiple reaction monitoring (MRM method). […]
Using the assay protocols substantially similar to those of Example 33, the following compounds were tested.

T1 sequence (Q91WN4 whole entry): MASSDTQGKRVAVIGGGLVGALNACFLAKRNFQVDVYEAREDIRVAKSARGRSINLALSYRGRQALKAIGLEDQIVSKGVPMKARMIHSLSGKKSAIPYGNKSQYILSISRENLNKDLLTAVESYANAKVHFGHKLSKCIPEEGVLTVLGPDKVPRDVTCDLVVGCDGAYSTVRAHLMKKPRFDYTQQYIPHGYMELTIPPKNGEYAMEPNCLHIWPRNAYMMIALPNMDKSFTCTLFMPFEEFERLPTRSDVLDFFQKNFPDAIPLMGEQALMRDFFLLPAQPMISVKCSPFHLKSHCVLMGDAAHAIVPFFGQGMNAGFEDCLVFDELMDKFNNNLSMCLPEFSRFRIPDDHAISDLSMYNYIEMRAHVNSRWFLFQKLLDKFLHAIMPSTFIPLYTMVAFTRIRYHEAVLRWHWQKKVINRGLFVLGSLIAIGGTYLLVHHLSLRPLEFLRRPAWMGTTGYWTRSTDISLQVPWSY

Compound	% Inhibition at 30 µM	inhibition at 30 µM
Cc1ccc(C(=O)[C@H]2C[C@@H]2C(=O)[O-])cc1Cl.[Na+] [Sodium (1S,2S)-2-[(3-chloro-4-methylphenyl)carbonyl]cyclopropane-1-carboxylate]	100%	–
CC(C)Oc1ccc(C(=O)[C@H]2C[C@@H]2C(=O)[O-])cc1Cl.[Na+] [Sodium (1S,2S)-2-{[3-chloro-4-(propan-2-yloxy)phenyl]carbonyl}cyclopropane-1-carboxylate]	102%	–
O=C([O-])[C@H]1C[C@@H]1C(=O)c1ccc(C(F)(F)F)c(Cl)c1.[Na+] [Sodium (1S,2S)-2-{[3-chloro-4-(trifluoromethyl)phenyl]carbonyl}cyclopropane-1-carboxylate]	102%	–
CC(C)(C)C(=O)OCOC(=O)[C@H]1C[C@@H]1C(=O)c1ccc(Cl)c(Cl)c1 [{[(1S,2S)-2-[(3,4-dichlorophenyl)carbonyl]cyclopropyl]carbonyloxy}methyl 2,2-dimethylpropanoate]	–	102%
